Active and inactive are the calls of the source. The rule behind the calls is not given here.
What was measured:
[1] = system: Rattus norvegicus; test: Neuroprotective activity in Sprague-Dawley rat model of middle cerebral artery occlusion-induced ischemia-reperfusion injury assessed as decrease in neurological score at 3 mg/kg, ip preincubated for 1 hrs followed by MCAO operation and further incubated with compound for 4 hrs after reperfusion; type: functional; settings: time 5 hrs
[2] = system: PC-12; test: (§1) Neuroprotective activity against SNP-induced apoptotic rat PC-12 cells assessed as restoration of cell morphology at 10 uM preincubated for 2 hrs followed by SNP stimulation for 24 hrs by Hoechst 33258 staining based fluorescence microscopic analysis; type: functional
[3] = system: Rattus norvegicus; test: Neuroprotective activity in Sprague-Dawley rat model of middle cerebral artery occlusion-induced ischemia reperfusion injury assessed as increase in serum SOD level at 3 to 30 mg/kg, ip preincubated for 1 hrs followed by MCAO operation and further incubated with compound for 4 hrs after reperfusion; type: functional, organism-based; settings: dose 3-30 mg/kg, time 5.0 hrs
[4] = system: PC-12; test: Neuroprotective activity against SNP-induced apoptotic rat PC-12 cells assessed as restoration of cell number at 10 uM preincubated for 2 hrs followed by SNP stimulation for 24 hrs by Hoechst 33258 staining based fluorescence microscopic analysis; type: functional
[5] = biological target: T1, Nuclear factor erythroid 2-related factor 2 (Rattus norvegicus) (UniProt O54968); test: Activation of Nrf2 pathway in rat PC-12 cells assessed as reversal of ML385 induced inhibition of Nrf2 protein expression at 10 uM measured after 3 hrs in the presence of Nrf2 signalling inhibitor ML385 by Western blot analysis; type: cell-based; settings: filed as activator
T1 sequence (whole entry): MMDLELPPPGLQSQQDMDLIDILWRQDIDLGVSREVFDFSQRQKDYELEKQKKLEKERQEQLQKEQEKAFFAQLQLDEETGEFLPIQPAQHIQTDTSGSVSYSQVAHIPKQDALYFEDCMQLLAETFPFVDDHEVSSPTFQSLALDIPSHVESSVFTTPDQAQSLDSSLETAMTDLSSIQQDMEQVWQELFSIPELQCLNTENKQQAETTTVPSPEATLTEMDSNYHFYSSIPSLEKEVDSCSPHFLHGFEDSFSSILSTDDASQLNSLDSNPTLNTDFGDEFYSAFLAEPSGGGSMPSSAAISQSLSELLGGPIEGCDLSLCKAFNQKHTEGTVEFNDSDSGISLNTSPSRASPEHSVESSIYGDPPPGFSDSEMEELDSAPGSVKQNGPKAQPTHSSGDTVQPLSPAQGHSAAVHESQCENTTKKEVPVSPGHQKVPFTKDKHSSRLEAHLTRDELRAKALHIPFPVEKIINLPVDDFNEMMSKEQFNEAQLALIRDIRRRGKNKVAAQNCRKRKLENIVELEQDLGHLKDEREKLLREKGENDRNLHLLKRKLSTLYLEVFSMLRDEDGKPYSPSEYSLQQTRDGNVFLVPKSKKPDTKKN

[6] = Cmax in Sprague-Dawley rat at 5 mg/kg, ip measured at 2 hrs by LC-MS/MS analysis; type: ADME, organism-based; set-up: dose 5 mg/kg, time 2 hrs, route ip; settings: in vivo
[7] = system: PC-12; test: as §1, with “reduction in nuclear shrinkage by measuring the decrease in blue fluorescence signal” for “restoration of cell morphology”; type: functional, cell-based
[8] = Half life in Sprague-Dawley rat at 5 mg/kg, ip measured upto 24 hrs by LC-MS/MS analysis; type: ADME, organism-based; settings: in vivo
[9] = AUC (0 to infinity) in Sprague-Dawley rat at 5 mg/kg, ip measured upto 24 hrs by LC-MS/MS analysis; type: ADME, organism-based; set-up: time < 24 hrs, dose 5 mg/kg, route ip; settings: in vivo
[10] = system: Rattus norvegicus; test: Neuroprotective activity in Sprague-Dawley rat model of middle cerebral artery occlusion-induced ischemia-reperfusion injury assessed as decrease in cerebral infarct volume at 30 mg/kg, ip preincubated for 1 hrs followed by MCAO operation and further incubated with compound for 4 hrs after reperfusion by TTC staining based assay; type: functional; set-up: scale not given: the % may be the effect or the level left; settings: time 5 hrs
[11] = system: Rattus norvegicus; test: Neuroprotective activity in Sprague-Dawley rat model of middle cerebral artery occlusion-induced ischemia reperfusion injury assessed as decrease in serum MDA level at 3 to 30 mg/kg, ip preincubated for 1 hrs followed by MCAO operation and further incubated with compound for 4 hrs after reperfusion; type: functional, organism-based; settings: dose 3-30 mg/kg, time 5.0 hrs
[12] = system: PC-12; test: Cytoprotective activity against SNP - induced oxidative stress in rat PC-12 cells assessed as restoration of mitochondrial membrane potential at 10 uM preincubated for 2 hrs followed by SNP stimulation for 24 hrs by JC-1 staining based fluorescence microscopic analysis; type: functional, cell-based
[13] = Clearence in Sprague-Dawley rat at 5 mg/kg, iv measured upto 24 hrs by LC-MS/MS analysis; type: ADME, organism-based; settings: in vivo
[14] = AUC (0 to infinity) in Sprague-Dawley rat at 5 mg/kg, iv measured upto 24 hrs by LC-MS/MS analysis; type: ADME, organism-based; set-up: dose 5 mg/kg, time < 24 hrs, route iv; settings: in vivo
[15] = Acute toxicity in BALB/c mouse assessed as survival rate at 550 mg/kg, ip measured after 7 days; type: organism-based; settings: in vivo, 168 h, time 7 day
[16] = Bioavailability in Sprague-Dawley rat at 5 mg/kg, ip measured upto 24 hrs by LC-MS/MS analysis; type: ADME, organism-based; settings: in vivo
[17] = system: PC-12; test: Neuroprotective activity against SNP-induced oxidative stress in rat PC-12 cells assessed as inhibition of ROS accumulation at 10 uM preincubated for 2 hrs followed by SNP stimulation for 24 hrs by DCFH-DA staining based fluorescence microscopic analysis; type: functional, cell-based

Question: For Cc1cc(C)cc(-n2nc(-c3ccc(C(F)(F)F)cc3O)nc2-c2ccccc2O)c1, which Activity [1] is on record?
Answer: Its Activity is 1.87.

Question: And the Activity [2]?
Answer: The Activity was “Active”.

Question: What about the Activity [3] of the same compound?
Answer: Its Activity is “Active”.

Question: And the Activity [4]?
Answer: The Activity was “Active”.

Question: What about the Activity [5] of the same compound?
Answer: Its Activity is “Active”.

Question: And the Cmax [6]?
Answer: The Cmax was 323 ng/mL.

Question: And the Activity [7]?
Answer: Its Activity is “Active”.

Question: What about the half-life [8] of the same compound?
Answer: The half-life was 12.8 h.

Question: What about the AUC(0-inf) [9] of the same compound?
Answer: Its AUC(0-inf) is 2930 ng·h/mL.

Question: What about the Activity [10] of the same compound?
Answer: Its Activity is 12.23%.

Question: What about the Activity [11] of the same compound?
Answer: Its Activity is “Active”.

Question: And the Activity [12]?
Answer: The Activity was “Active”.

Question: And the CL [13]?
Answer: Its CL is 0.0005 (mg/kg)/(ng/ml)/hr.

Question: What about the AUC(0-inf) [14] of the same compound?
Answer: Its AUC(0-inf) is 10200 ng·h/mL.

Question: What about the Activity [15] of the same compound?
Answer: The Activity was “Non-Toxic”.

Question: What about the bioavailability [16] of the same compound?
Answer: Its bioavailability is 28.8%.

Question: What about the Activity [17] of the same compound?
Answer: Its Activity is “Active”.

Source: ChEMBL document CHEMBL5143655, “Synthesis and biological evaluation of 1,2,4-triazole derivatives as potential Nrf2 activators for the treatment of cerebral ischemic injury” (Eur J Med Chem, 2022)
